The text below walks through data of patent US20220073536A1 (Rigel Pharmaceuticals, Inc., priority 2003, published 2022).

Where two headings read alike, the source gives them in different places.

Test [1] has as its system cultured human mast cells (CHMC). Description: CHMC low cell density ionomycin activation: tryptase assay. It is filed as cell-based. Conditions: Homo sapiens, Mast cell, low cell density CHMC, read-out: LD Tryptase, CHMC, Iono, 3 pt.
Another test has as its target T1, Syk kinase (Homo sapiens, UniProt P43405).
T1 construct: purchased Upstate, Lake Placid N.Y
Description: Syk kinase biochemical fluorescence polarization assay. Conditions: isolated Syk kinase, read-out: fp_syk, 11 pt. How it is done: Many of the 2,4-pyrimidinediamine compounds were tested for the ability to inhibit Syk kinase catalyzed phosphorylation of a peptide substrate in a biochemical fluorescenced polarization assay with isolated Syk kinase. In this experiment, Compounds were diluted to 1% DMSO in kinase buffer (20 mM HEPES, pH 7.4, 5 mM MgCl2, 2 mM MnCl2, 1 mM DTT, 0.1 mg/mL acetylated Bovine Gamma Globulin). Compound in 1% DMSO (0.2% DMSO final) was mixed with ATP/substrate solution at room temperature. Syk kinase (Upstate, Lake Placid N.Y.) was added to a final reaction volume of 20 uL, and the reaction was incubated for 30 minutes at room temperature. […] EDTA (10 mM final)/anti-phosphotyrosine antibody (1× final)/fluorescent phosphopeptide tracer (0.5× final) was added in FP Dilution Buffer to stop the reaction for a total volume of 40 uL according to manufacturer's instructions (PanVera Corporation) The plate was incubated for 30 minutes in the dark at room temperature. Plates were read on a Polarion fluorescence polarization plate reader (Tecan). Data were converted to amount of phosphopeptide present using a calibration curve generated by competition with the phosphopeptide competitor provided in the Tyrosine Kinase Assay Kit, Green (PanVera Corporation).
On the technique in general: Polarisation of emitted light reports the rotation of a fluorescent probe.

In test [2] the test system is cultured human mast cells (CHMC). Description: CHMC low cell density IgE activation: tryptase assay. It counts as cell-based. Conditions: Homo sapiens, Mast cell, low cell density CHMC, IgE activation. An outline of the steps: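 Fluorogenic readout of tryptase released into the supernatant (30 min substrate incubation, room temperature) measures degranulation. Cells were plated at low density (1000–1500/well, varied by donor) and triggered with anti-IgE for 30 min at 37 °C.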

Setting [3] is: tryptase, 3 pt, read-out: LD Tryptase, CHMC, IgE, 3 pt.
The mark [4] stands for this setting: tryptase, 8 pt, read-out: LD Tryptase, CHMC, IgE, 8 pt.
Setting [5] is: tryptase release, 3 pt, read-out: LD Tryptase, CHMC, IgE, 3 pt.
Setting [6] is: tryptase release, 8 pt, read-out: LD Tryptase, CHMC, IgE, 8 pt.

As to `CNC(=O)CNC(=O)c1ccc(Nc2ncc(F)c(Nc3ccc4c(c3)C(N)CCO4)n2)cc1` (racemic) [Compound 1299, (R,S)-N4-[4-Amino-3,4-dihydro-2H-1-benzopyran-6-yl]-5-fluoro-N2-[4-[N-(N-methylamino)carbonylmethylene]aminocarbonylphenyl]-2,4-pyrimidinediamine], the IC50 is over 10 µM in test [1] (tryptase, 3 pt); under 10 µM at Syk kinase (11 pt); under 10 µM in test [2] (setting [3]); under 10 µM in test [2] (setting [4]).
For `COc1cc(Nc2nc(Nc3cc(C)cc(C)c3)ncc2F)cc(OC)c1` [Compound 350], the IC50 is over 10 µM in test [1] (tryptase, 3 pt); under 10 µM at Syk kinase (11 pt); under 10 µM in test [2] (setting [3]); under 10 µM in test [2] (setting [4]).
For the compound `COc1cc(OC)cc(N(C)c2nc(Nc3cc(C)cc(C)c3)ncc2F)c1` [Compound 399, N4-(3,5-Dimethoxyphenyl)-N2-(3,5-dimethylphenyl)-5-fluoro-N4-methyl-2,4-pyrimidinediamine], the IC50 in test [1] (tryptase, 3 pt) is over 10 µM; on Syk kinase (11 pt), under 10 µM; in test [2] (setting [3]), under 10 µM; in test [2] (setting [4]) it was under 10 µM.
For the compound `COc1ccc(N(C)c2nc(Cl)ncc2F)cc1OC` [Compound 417], the IC50 is over 10 µM in test [1] (tryptase, 3 pt); over 10 µM on Syk kinase (11 pt); over 10 µM in test [2] (setting [3]); over 10 µM in test [2] (setting [4]).
Take `COc1ccc(Nc2nc(Nc3cccc(-c4ncco4)c3)ncc2F)cc1OC` [Compound 423, N4-(3,4-Dimethoxyphenyl)-5-fluoro-N2-[3-(oxazol-2-yl)phenyl]-2,4-pyrimidinediamine]: the IC50 in test [1] (tryptase, 3 pt) was over 10 µM; on Syk kinase (11 pt) it was under 10 µM; in test [2] (setting [3]), under 10 µM; in test [2] (setting [4]), under 10 µM.
Take `COc1ccc(N(C)c2nc(Nc3cccc(-c4ncco4)c3)ncc2F)cc1OC` [Compound 439, N4-(3,4-Dimethoxyphenyl)-5-fluoro-N4-methyl-N2-[3-(oxazol-2-yl)phenyl]-2,4-pyrimidinediamine]: the IC50 is over 10 µM in test [1] (tryptase, 3 pt); over 10 µM at Syk kinase (11 pt); under 10 µM in test [2] (setting [3]); under 10 µM in test [2] (setting [4]).
Take `CNC(=O)COc1ccc(Nc2nc(Nc3ccc4ccn(CC(=O)NC)c4c3)ncc2F)cc1Cl` [Compound 648, N4-[3-Chloro-4-(N-methylamino)carbonylmethyleneoxyphenyl]-5-fluoro-N2-[1-(N-methylamino)carbonylmethyleneindol-6-yl]-2,4-pyrimidinediamine]: the IC50 was over 10 µM in test [1] (tryptase release, 3 point); under 10 µM on Syk kinase (11 point); under 10 µM in test [2] (tryptase release, 3 point, read-out: LD Tryptase, CHMC, IgE, 3 pt); under 10 µM in test [2] (tryptase release, 8 point, read-out: LD Tryptase, CHMC, IgE, 8 pt).
In the case of `COCCCn1ncc2cc(Nc3ncc(F)c(Nc4ccc(OC)c(Cl)c4)n3)ccc21` [Compound 792, N4-(3-Chloro-4-methoxyphenyl)-5-fluoro-N2-[1-(3-methoxypropyl)indazol-5-yl]-2,4-pyrimidinediamine], the IC50 in test [1] (tryptase release, 3 pt) is over 10 µM; on Syk kinase (11 pt), under 10 µM; in test [2] (setting [5]) it was under 10 µM; in test [2] (setting [6]) it was under 10 µM.
Turning to `COc1ccc(Nc2nc(Nc3ccc4[nH]c(C(F)(F)F)nc4c3)ncc2F)cc1Cl` [Compound 800, N4-(3-Chloro-4-methoxyphenyl)-5-fluoro-N2-(2-trifluoromethyl-1H-benzimidazol-5-yl)-2,4-pyrimidinediamine], the IC50 in test [1] (tryptase release, 3 pt) was under 10 µM; on Syk kinase (11 pt), under 10 µM; in test [2] (setting [5]), under 10 µM; in test [2] (setting [6]), under 10 µM.
For the compound `Fc1cnc(Nc2ccc3[nH]c(C(F)(F)F)nc3c2)nc1Nc1ccc(Cl)c(Cl)c1` [Compound 801, N4-(3,4-Dichlorophenyl)-5-fluoro-N2-(2-trifluoromethyl-1H-benzimidazol-5-yl)-2,4-pyrimidinediamine], the IC50 in test [1] (tryptase release, 3 pt) is under 10 µM; on Syk kinase (11 pt) it was under 10 µM; in test [2] (setting [5]) it was under 10 µM; in test [2] (setting [6]) it was under 10 µM.
Regarding `COc1ccc(Nc2nc(Nc3ccc4nc(C)[nH]c4c3)ncc2F)cc1Cl` [Compound 808, N4-(3-Chloro-4-methoxyphenyl)-5-fluoro-N2-(2-methyl-3H-benzimidazol-5-yl)-2,4-pyrimidinediamine], the IC50 in test [1] (tryptase release, 3 pt) was over 10 µM; at Syk kinase (11 pt), under 10 µM; in test [2] (setting [5]), under 10 µM; in test [2] (setting [6]), under 10 µM.
As for `Cc1nc2ccc(Nc3ncc(F)c(Nc4ccc(Cl)c(Cl)c4)n3)cc2[nH]1` [Compound 809, N4-(3,4-Dichlorophenyl)-5-fluoro-N2-(2-methyl-3H-benzimidazol-5-yl)-2,4-pyrimidinediamine], the IC50 in test [1] (tryptase release, 3 pt) is over 10 µM; at Syk kinase (11 pt), under 10 µM; in test [2] (setting [5]) it was under 10 µM; in test [2] (setting [6]), under 10 µM.
As to `COc1c(C)cc(Nc2ncc(F)c(Nc3cccc(NC4=NCCN4)c3)n2)cc1C` [Compound 1093], the IC50 in test [1] (tryptase readout, 3 pt) was over 10 µM; at Syk kinase (11 pt), under 10 µM; in test [2] (tryptase readout, 3 pt, read-out: LD Tryptase, CHMC, IgE, 3 pt), under 10 µM; in test [2] (tryptase readout, 8 pt, read-out: LD Tryptase, CHMC, IgE, 8 pt), under 10 µM.
As to `Fc1cnc(Nc2cccc(-c3ncco3)c2)nc1Nc1cc(C2CC2)n[nH]1` [Compound 1144, N4-(3-Cyclopropyl-1H-pyrazol-5-yl)-5-fluoro-N2-[3-(oxazol-2-yl)phenyl]-2,4-pyrimidinediamine], the IC50 in test [1] (tryptase, 3 pt) was over 10 µM; at Syk kinase (11 pt), under 10 µM; in test [2] (setting [3]), under 10 µM; in test [2] (setting [4]), under 10 µM.
Regarding `CN1CCN(c2ccc(Nc3ncc(F)c(N(C)C4CCC4)n3)cc2)CC1` [Compound 1147, N4-Cyclobutyl-5-fluoro-N4-methyl-N2-[4-(4-methylpiperazino)phenyl]-2,4-pyrimidinediamine], the IC50 in test [1] (tryptase, 3 pt) is over 10 µM; on Syk kinase (11 pt), under 10 µM; in test [2] (setting [3]) it was under 10 µM; in test [2] (setting [4]), under 10 µM.
As to `CN1CCN(c2ccc(Nc3ncc(F)c(NC4CCCCC4)n3)cc2)CC1` [Compound 1164, N4-Cyclohexyl-5-fluoro-N2-[4-(4-methylpiperazino)phenyl]-2,4-pyrimidinediamine], the IC50 in test [1] (tryptase, 3 pt) is over 10 µM; on Syk kinase (11 pt), under 10 µM; in test [2] (setting [3]), under 10 µM.
With `O=C(Nc1ccc(Nc2ncc(F)c(NC3CCCCC3)n2)cc1)c1ccccc1` [Compound 1174, N2-(4-Benzamidophenyl)-N4-cyclohexyl-5-fluoro-2,4-pyrimidinediamine], the IC50 in test [1] (tryptase, 3 pt) was over 10 µM; on Syk kinase (11 pt), under 10 µM; in test [2] (setting [3]) it was over 10 µM; in test [2] (setting [4]), under 10 µM.
